# Source: paper PMC9861386, “N-Heterocyclic Carbene-Iridium Complexes as Photosensitizers for In Vitro Photodynamic Therapy to Trigger Non-Apoptotic Cell Death in Cancer Cells” (Molecules, 2023)
# How the values were obtained:
# Assay type in all cases: cell-based, human
# [1] = tested on: MCF7/FasR and MCF7/FasR/Bcl-xL cells; assay: Bcl-xL dependence of cell death, MTT in MCF7/FasR vs MCF7/FasR/Bcl-xL; conditions: complexes: 458 nm irradiation, 10 nM to 1 µM, TNFα 100 ng/mL, 72 h
# Description: To determine the mechanism of cell death, we used MCF7 cells transfected to express the human Fas receptor (FasR) or doubly transfected to express the human Fas receptor and human Bcl-xL [75]. Since MCF7 cells express the TNF receptor endogenously, this allowed the study of both Fas- and TNFα-mediated apoptosis in the same cell model to assess whether cell death was dependent on the Bcl-2 family of mitochondrial proteins such as Bcl-xL. […]
# Mitochondrial outer membrane permeabilization (MOMP), which leads to rapid cell death through the release of mitochondrial proteins (including cytochrome c) that activate executioner caspases, is the critical event in intrinsic apoptosis. […] We then assessed whether the cell death induced by our complexes could be abrogated by the overexpression of Bcl-xL.
# A tetrazolium-based MTT reagent (3-(4,5-dimethylthiazol-2-yl)-2,5-diphenyltetrazolium bromide) was used to determine cell viability, as previously described. […] After solubilization with 500 μL of lysis buffer (DMSO), formazan was quantified by spectrophotometry with a microplate reader at 570 nm absorbance (ClarioSTAR, BMG LabTech, Champigny-sur-Marne, France). […] All results were calculated from data obtained in at least three independent experiments. […]
# Figure 13 Evaluation of apoptotic biomarkers. […] (B) MTT, ATP and GSH assays were evaluated in duplicate samples. […]
# [2] = tested on: MCF7/FasR and MCF7/FasR/Bcl-xL cells; assay: ATP quantification (CellTiter-Glo); conditions: increasing concentration, 458 nm irradiation, 72 h
# Method: (§1) ATP and glutathione (GSH) contents were measured with the Promega CellTiter-Glo (Cat#G7570) and GSH-Glo (cat#6911) luminescent assays, respectively, according to the manufacturer’s recommendations.
# (§2) Figure 13 Evaluation of apoptotic biomarkers. MCF7/FasR and MCF7/FasR/Bcl-xL cells were irradiated at 458 nm in presence of the indicated concentration of complex 4a or treated with […] TNFα for 72 h. (A) Cytosolic extracts from MCF7/FasR and MCF7/FasR/Bcl-xL cells were separated by SDS-PAGE and probed with anti-PARP, anti-caspase-7 and anti-caspase-8. Migrations indicated are: full-length PARP p113, cleaved PARP p89, full-length caspase-7 and full-length caspase-8. (B) MTT, ATP and GSH assays were evaluated in duplicate samples. Data are expressed as percent (%) of untreated cells and are the means of 3 independent experiments (***, p < 0.0001, NS, not significant).
# [3] = tested on: MCF7/FasR and MCF7/FasR/Bcl-xL cells; assay: GSH quantification (GSH-Glo); conditions: complex 4a all doses with 458 nm irradiation; TNFα 100 ng/mL; 72 h
# Method: as §1, §2
smiles,measurement,setting,value
CC(C)[n+]1ccn2[c]1[Ir-3]13([c]4ccccc4-c4cccc[n+]41)([c]1ccccc1-c1cccc[n+]13)[c]1n(cc[n+]1C(C)C)C2.F[P-](F)(F)(F)(F)F [Complex 4a],effect of Bcl-xL overexpression on loss of cell viability,[1],not affected by Bcl-xL overexpression
same,ATP level,[2],loss of ATP
same,level of reduced GSH,[3],decreased
